Data: patent US20230100838A1 (Revolution Medicines, Inc., priority 2019, published 2023)

What was measured:
Assay type in all cases: binding
[1] = biological target: T1, GDP-loaded K-Ras (1-169) G12D, C51S, C80L, C118S (Homo sapiens, UniProt P01116, C118S/C51S/C80L/G12D); assay: K-Ras G12D(GDP) cross-linking assay (conjugate formation, TOF mass spectrometry); design: key: 0: No observed x-linking; +: 0 < x ≤ 20; ++: 20 < x ≤ 40; +++: 40 < x ≤ 100; conditions: percent covalently modified K-Ras by MS, room temperature, typical compound conc. 2, 10, 25 μM, endpoints 1 and 24 h
T1 construct: GDP-loaded K-Ras (1-169) G12D, C51S, C80L, C118S
Procedure, shortened: (§1)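 5 μM protein (final, from 50 μM) in HEPES/NaCl/MgCl2 buffer pH 7.4 with compound typically at 2, 10 and 25 μM, room temperature, 1 and 24 h endpoints; formic acid quench. Intact-protein LC–TOF MS; percent modification is covalent adduct peak height over total K-Ras peak height.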

[2] = biological target: T2, GDP-loaded K-Ras (1-169) C51S, C80L, C118S (Homo sapiens, UniProt P01116, C118S/C51S/C80L); assay: K-Ras WT (GDP) cross-linking assay (conjugate formation, TOF mass spectrometry); design: key: 0: No observed x-linking; +: 0 < x ≤ 20; ++: 20 < x ≤ 40; +++: 40 < x ≤ 100; conditions: percent covalently modified K-Ras by MS, room temperature, typical compound conc. 2, 10, 25 μM, endpoints 1 and 24 h
T2 construct: GDP-loaded K-Ras (1-169) C51S, C80L, C118S
Procedure, shortened: as §1

K-Ras G12S = K-Ras G12S (Homo sapiens, UniProt P01116, G12S); assay: K-Ras G12S cross-linking assay (comparable procedure, conjugate formation, TOF mass spectrometry); design: key: 0: No observed x-linking
Description: Protocol: K-Ras G12D(GDP) Cross-Linking Assay
Note: while the following protocol outlines the procedure for K-Ras G12D(GDP), a person of skill in the art may substitute other Ras proteins, and may also substitute a non-hydrolyzable GTP analog for GDP to study GTP bound Ras protein.
GDP-loaded K-Ras (1-169) G12D, C51S, C80L, C118S and GDP-loaded K-Ras (1-169) C51S, C80L, C118S were adjusted to 50 μM in K-Ras assay buffer (12.5 mM HEPES, 75 mM NaCl and 1 mM MgCl2 at pH 7.4). A 5 μL aliquot of each protein solution was added to each well of a 96-well microplate containing 40 μL of assay buffer. Initial compound stocks were prepared in DMSO at 100 times their final assay concentration. Compounds were then diluted 10-fold into K-Ras assay buffer to 10 times their final concentration. A 5 μL aliquot of each diluted compound solution was added to each protein solution in the 96-well microplate to initiate the reaction, which then proceeded at room temperature. Typical final compound concentrations were 2, 10, and 25 μM. At each time point, the reactions were analyzed immediately or quenched with 5 μL of a 5% formic acid solution and kept at 4° C. until analysis. Typical assay endpoints were 1 and 24 h.
Data collection took place on an Agilent 6230 TOF Mass Spectrometer. Complete reactions were injected onto a C4 reverse-phase column to separate protein from buffer components prior to entering the mass spectrometer. The proteins were eluted from the column by increasing acetonitrile fraction in the mobile phase and fed directly into the mass analyzer. Initial analysis of raw data took place in Agilent MassHunter BioConfirm software and consisted of deconvolution of multiple protein charge states with the maximum entropy algorithm, with a mass step of 1 Da. The heights of all deconvoluted protein masses were exported for further data analysis. The percent modification of each protein was then determined by calculating the peak height of the covalently modified K-Ras species as a percentage of the sum total of K-Ras protein peak height.

[3] = Table 5, percent covalently modified K-Ras by MS
[4] = Table 4, percent covalently modified K-Ras by MS

Row | SMILES | G12D x-linking (%) ([1]; Table 5) | WT x-linking (%) ([2]; Table 5) | G12S x-linking (%) (K-Ras G12S; [3]) | G12D x-linking (%) ([1]; Table 4) | WT x-linking (%) ([2]; Table 4) | G12S x-linking (%) (K-Ras G12S; [4])
1 | Cc1cccc2cccc(N3CCc4c(nc(OC[C@@H]5CCCN5C)nc4N4CCC(N=C=NCc5cccs5)CC4)C3)c12 [Example 94, N-(1-(7-(8-methylnaphthalen-1-yl)-2-(((S)-1-methylpyrrolidin-2-yl)methoxy)-5,6,7,8-tetrahydropyrido[3,4-d]pyrimidin-4-yl)piperidin-4-yl)-N-(thiophen-2-ylmethyl)methanediimine] | + (0 < x ≤ 20) | + (0 < x ≤ 20) | + (0 < x ≤ 10) |  |  | 
2 | COCCN=C=N[C@H]1CC[C@H](N(C)c2nc(OC[C@@H]3CCCN3C)nc3c2CCN(c2cccc4cccc(C)c24)C3)CC1 [Example 78, N-((1r,4S)-4-((((2-methoxyethyl)imino)methylene)amino)cyclohexyl)-N-methyl-7-(8-methylnaphthalen-1-yl)-2-(((S)-1-methylpyrrolidin-2-yl)methoxy)-5,6,7,8-tetrahydropyrido[3,4-d]pyrimidin-4-amine] | ++ (20 < x ≤ 40) | + (0 < x ≤ 20) | + (0 < x ≤ 10) |  |  | 
3 | CC(=O)N1CC1C(=O)N1CCN(c2ncnc3c(F)c(-c4ccccc4F)c(Cl)cc23)CC1 (stereo not drawn) [Example 17, 1-(2-(4-(6-chloro-8-fluoro-7-(2-fluorophenyl)quinazolin-4-yl)piperazine-1-carbonyl)aziridin-1-yl)ethan-1-one] |  |  |  | + (0 < x ≤ 20) | + (0 < x ≤ 20) | + (0 < x ≤ 10)
4 | Cc1cccc2cccc(N3CCc4c(nc(OC[C@@H]5CCCN5C)nc4NCCN(C)C(=O)NCCCl)C3)c12 [Example 37, (S)-3-(2-chloroethyl)-1-methyl-1-(2-((7-(8-methylnaphthalen-1-yl)-2-((1-methylpyrrolidin-2-yl)methoxy)-5,6,7,8-tetrahydropyrido[3,4-d]pyrimidin-4-yl)amino)ethyl)urea] |  |  |  | 0 | 0 | 0
5 | Cc1cccc2cccc(N3CCc4c(nc(OC[C@@H]5CCCN5C)nc4N4CCC(N=C=NCCCN(C)c5ccccc5)CC4)C3)c12 [Example 90, N-methyl-N-(3-((((1-(7-(8-methylnaphthalen-1-yl)-2-(((S)-1-methylpyrrolidin-2-yl)methoxy)-5,6,7,8-tetrahydropyrido[3,4-d]pyrimidin-4-yl)piperidin-4-yl)imino)methylene)amino)propyl)aniline] | + (0 < x ≤ 20) | + (0 < x ≤ 20) | + (0 < x ≤ 10) |  |  | 
6 | COCCN=C=N[C@@H]1CCN(c2nc(OC[C@@H]3CCCN3C)nc3c2CCN(c2cccc4cccc(C)c24)C3)C[C@@H]1CC#N [Example 75, 2-((3S,4R)-4-((((2-methoxyethyl)imino)methylene)amino)-1-(7-(8-methylnaphthalen-1-yl)-2-(((S)-1-methylpyrrolidin-2-yl)methoxy)-5,6,7,8-tetrahydropyrido[3,4-d]pyrimidin-4-yl)piperidin-3-yl)acetonitrile] | +++ (40 < x ≤ 100) | + (0 < x ≤ 20) | ++ (10 < x ≤ 100) |  |  | 
7 | Cc1ccnc(C(C)C)c1-n1c(=O)nc(N2CCN(C(=O)[C@H]3CN3)C[C@@H]2C)c2cc(F)c(-c3c(O)cccc3F)nc21 [Example 65, 4-((S)-4-((R)-aziridine-2-carbonyl)-2-methylpiperazin-1-yl)-6-fluoro-7-(2-fluoro-6-hydroxyphenyl)-1-(2-isopropyl-4-methylpyridin-3-yl)pyrido[2,3-d]pyrimidin-2(1H)-one] | + (0 < x ≤ 20) | + (0 < x ≤ 20) | + (0 < x ≤ 10) |  |  | 
8 | COCCN=C=NC1CCN(c2nc(=O)n(-c3c(C)ccnc3C(C)C)c3nc(-c4ccccc4F)c(F)cc23)CC1 [Example 54, 6-fluoro-7-(2-fluorophenyl)-1-(2-isopropyl-4-methylpyridin-3-yl)-4-(4-((((2-methoxyethyl)imino)methylene)amino)piperidin-1-yl)pyrido[2,3-d]pyrimidin-2(1H)-one] |  |  |  | + (0 < x ≤ 20) | + (0 < x ≤ 20) | + (0 < x ≤ 10)
9 | CCCN=C=NCC1CCN(c2nc(=O)n(-c3c(C)ccnc3C(C)C)c3nc(-c4ccccc4F)c(F)cc23)CC1 [Example 71, 6-fluoro-7-(2-fluorophenyl)-1-(2-isopropyl-4-methylpyridin-3-yl)-4-(4-((((propylimino)methylene)amino)methyl)piperidin-1-yl)pyrido[2,3-d]pyrimidin-2(1H)-one] | ++ (20 < x ≤ 40) | ++ (20 < x ≤ 100) | ++ (10 < x ≤ 100) |  |  | 
10 | COCCN=C=NC1CCN(c2nc(OC[C@@H]3CCCN3C)nc3c2CCN(c2cccc4cccc(C)c24)C3)CC1 [Example 20, N-(2-methoxyethyl)-N-(1-(7-(8-methylnaphthalen-1-yl)-2-(((S)-1-methylpyrrolidin-2-yl)methoxy)-5,6,7,8-tetrahydropyrido[3,4-d]pyrimidin-4-yl)piperidin-4-yl)methanediimine] |  |  |  | +++ (40 < x ≤ 100) | ++ (20 < x ≤ 100) | ++ (10 < x ≤ 100)
11 | Fc1ccccc1-c1c(Cl)cc2c(N3CCC(N=C=NCc4ccccc4)CC3)ncnc2c1F [Example 1, N-benzyl-N-(1-(6-chloro-8-fluoro-7-(2-fluorophenyl)quinazolin-4-yl)piperidin-4-yl)methanediimine] |  |  |  | + (0 < x ≤ 20) | + (0 < x ≤ 20) | + (0 < x ≤ 10)
12 | Cc1cccc2cccc(N3CCc4c(nc(OC[C@@H]5CCCN5C)nc4N4CCC(N=C=NC5CCN(c6ccccc6)CC5)CC4)C3)c12 [Example 84, N-(1-(7-(8-methylnaphthalen-1-yl)-2-(((S)-1-methylpyrrolidin-2-yl)methoxy)-5,6,7,8-tetrahydropyrido[3,4-d]pyrimidin-4-yl)piperidin-4-yl)-N-(1-phenylpiperidin-4-yl)methanediimine] | + (0 < x ≤ 20) | + (0 < x ≤ 20) | + (0 < x ≤ 10) |  |  | 
13 | Cc1cccc2cccc(N3CCc4c(nc(OC[C@@H]5CCCN5C)nc4N4CCC(N=C=NCCN(C)c5ccccc5)CC4)C3)c12 [Example 89, N-methyl-N-(2-((((1-(7-(8-methylnaphthalen-1-yl)-2-(((S)-1-methylpyrrolidin-2-yl)methoxy)-5,6,7,8-tetrahydropyrido[3,4-d]pyrimidin-4-yl)piperidin-4-yl)imino)methylene)amino)ethyl)aniline] | + (0 < x ≤ 20) | + (0 < x ≤ 20) | + (0 < x ≤ 10) |  |  | 
14 | CC(C)N=C=NC1CCN(c2ncnc3c(F)c(-c4ccccc4F)c(Cl)cc23)CC1 [Example 3] |  |  |  | + (0 < x ≤ 20) | + (0 < x ≤ 20) | + (0 < x ≤ 10)
15 | COCC1(N=C=NC2CCN(c3nc(OC[C@@H]4CCCN4C)nc4c3CCN(c3cccc5cccc(C)c35)C4)CC2)CC1 [Example 80, N-(1-(methoxymethyl)cyclopropyl)-N-(1-(7-(8-methylnaphthalen-1-yl)-2-(((S)-1-methylpyrrolidin-2-yl)methoxy)-5,6,7,8-tetrahydropyrido[3,4-d]pyrimidin-4-yl)piperidin-4-yl)methanediimine] | ++ (20 < x ≤ 40) | + (0 < x ≤ 20) | ++ (10 < x ≤ 100) |  |  | 
16 | Cc1cccc2cccc(N3CCc4c(nc(OC[C@@H]5CCCN5C)nc4N(C)CCCN=C=NCc4ccccc4)C3)c12 [Example 31, N-(3-(((benzylimino)methylene)amino)propyl)-N-methyl-7-(8-methylnaphthalen-1-yl)-2-(((S)-1-methylpyrrolidin-2-yl)methoxy)-5,6,7,8-tetrahydropyrido[3,4-d]pyrimidin-4-amine] |  |  |  | +++ (40 < x ≤ 100) | ++ (20 < x ≤ 100) | ++ (10 < x ≤ 100)
